Experiment [1] has as its target T1, Gdx-Clo (Clostridiales bacterium oral taxon 876, UniProt U2EQ00).
T1 sequence (U2EQ00 1-105): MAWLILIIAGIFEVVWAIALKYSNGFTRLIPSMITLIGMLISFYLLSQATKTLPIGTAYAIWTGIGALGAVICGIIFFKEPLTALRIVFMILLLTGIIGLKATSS
The experiment in a line: Tryptophan fluorescence substrate binding. Details: species or system Clostridales oral taxon 876. The procedure: Fluorescence emission spectra (λex = 280 nm, […]) were collected for 1 µM purified protein in assay buffer containing 200 mM NaCl, 10 mM HEPES, 10 mM bicine, 10 mM NaPO4, and 5 mM DM, with pH adjusted from 6.5 to 9.0. Substrate was added from a stock solution prepared in assay buffer. For Gdm^+ titrations, the change in fluorescence, F, as a function of substrate fit to a single site binding isotherm, ∆F=(Fmax[S]/Kd+[S]). (3)
To derive the Ka values and Kd values from the apparent Kd measured as a function of pH, we used the following equation, which uses the approximation that the protonatable E13 sidechains have equal Ka values: Kd,app=(Kd)*(1+([H^+]/Ka))*(1+([H^+]/Ka)). (5)

In experiment [2] the target is T1, Gdx-Clo. The experiment in a line: Isothermal titration calorimetry (ITC). The settings on record: for n: ITC binding stoichiometry, pH 8.5, mean ± SEM; for Kd / TΔS / ΔG / ΔH / Binding stoichiometry: ITC; for Kd / TΔS / ΔG / ΔH: pH 8.5, 25°C, mean ± SEM; for Binding stoichiometry: pH 8.5, exothermic binding. The format is binding, Clostridales oral taxon 876. The method, then: ITC experiments were conducted using a low-volume Nano ITC instrument (TA Instruments). […] For each experiment, 300 µl of 700 µM Gdx-Clo was loaded in the sample chamber maintained at 25°C with 350 rpm stirring speed. […] The sample was titrated (0.75 µl injections) at 100-s increments. Once an acceptable baseline slope was achieved (0.30 µW/h and 0.03 µW standard deviation), a 200 s baseline (∼112 µW) was taken prior to beginning titrations. Data were analyzed using NanoAnalyze software.
For both substrates, the Kd value measured using ITC was in good agreement with the Kd value obtained using tryptophan fluorescence, validating the tryptophan fluorescence approach to monitor substrate binding.
A general note: Isothermal titration calorimetry measures the heat released or taken up as one component is titrated into another.

In a further experiment the target is Fluc-Bpe (Bordetella pertussis, UniProt Q7VYU0). The experiment is described as follows: SSM electrophysiology cross-reactivity control with individually reconstituted Fluc-Bpe. Type of experiment: biochemical. The method, then:
SSM experiments were performed using SURFE^2R N1 instrument (Nanion Technologies). Sensors were prepared with a 1,2-diphytanoyl-sn-glycero-3-phosphocholine (DPhPC) lipid monolayer according to published protocols ([Bazzone et al., 2017]). Each sensor’s capacitance and conductance were verified before use (<80 nF capacitance, <50 nS conductance) using Nanion software protocols. Proteoliposome stock was diluted 1:25 in assay buffer (100 mM KCl, 100 mM KPO4, pH 7.5) prior to adsorption to the DPhPC monolayer. For substrate screening experiments, reference substrate samples (Gdm^+ for SMRGdx, and TPA^+ for SMRQac) were checked periodically to test for the stability of the sensor; if the current amplitude of the reference compound differed by >10% on one sensor, it indicated the desorption of liposomes, and the sensor was not used for further experiments. For every SSM electrophysiology experiment, we used the same general solution exchange protocol: after 2 s perfusion with a non-activating solution, we perfused substrate-containing buffer for 2 s and then returned to the equilibrium condition with a 4 s perfusion of non-activating buffer. […]
The adsorption of proteoliposomes to the sensor is subject to considerable variability from experiment to experiment, so the current measurements from different sensors cannot be quantitatively compared ([Barthmes et al., 2016]). […]

The next experiment addresses Gdx-pPro (Citrobacter freundii, UniProt O69279). The settings on record: for Transport currents in substrate screen: 2 mM substrate.
The mark [3] stands for this setting: pH 6.5, tryptophan fluorescence, mean ± SEM, read-out: Kd (apparent) for substrate binding to Gdx-Clo.
Where [4] appears, read: pH 7.0, tryptophan fluorescence, mean ± SEM, read-out: Kd (apparent) for substrate binding to Gdx-Clo.
The mark [5] stands for this setting: pH 7.5, tryptophan fluorescence, mean ± SEM, read-out: Kd (apparent) for substrate binding to Gdx-Clo.
The mark [6] stands for this setting: pH 8.0, tryptophan fluorescence, mean ± SEM, read-out: Kd (apparent) for substrate binding to Gdx-Clo.
The mark [7] stands for this setting: pH 8.5, tryptophan fluorescence, mean ± SEM, read-out: Kd (apparent) for substrate binding to Gdx-Clo.
Where [8] appears, read: pH-independent Kd, glutamates assumed to have equal Ka, read-out: Kd from fit of apparent Kd versus pH to Eq. 5.

The structures appear in SMILES notation.

Chain of Gdx-pPro (O69279 2-105): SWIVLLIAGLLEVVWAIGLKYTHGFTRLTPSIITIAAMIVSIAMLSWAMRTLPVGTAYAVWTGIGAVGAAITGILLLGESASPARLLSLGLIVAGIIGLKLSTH
Chain of Fluc-Bpe (Q7VYU0 whole entry): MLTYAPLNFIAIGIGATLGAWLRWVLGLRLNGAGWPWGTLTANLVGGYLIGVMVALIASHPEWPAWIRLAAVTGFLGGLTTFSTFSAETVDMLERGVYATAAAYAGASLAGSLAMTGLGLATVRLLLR

For `N=C(N)NC(N)=O` [Guanylurea, guanylurea], the Kd at Gdx-Clo [1] (setting [3]) came to 860 ± 220 µM; on Gdx-Clo [1] (setting [4]), 190 ± 20 µM; at Gdx-Clo [1] (setting [5]) it was 120 ± 20 µM; at Gdx-Clo [1] (setting [6]), 59 ± 1 µM; at Gdx-Clo [1] (setting [7]) it was 91 ± 16 µM; at Gdx-Clo [1] (pH 9.0, tryptophan fluorescence, mean ± SEM, read-out: Kd (apparent) for substrate binding to Gdx-Clo), 63 ± 5 µM. The figures for the Kd on Gdx-Clo [1] (setting [8]) and at Gdx-Clo [2] were 70 µM and 140 ± 30 µM, respectively. Besides, the n at Gdx-Clo [2] turned out to be 0.43 ± 0.03. The TΔS at Gdx-Clo [2] is -1.8 ± 0.6 kcal/mol. The ΔG on Gdx-Clo [2] was -5.4 ± 0.06 kcal/mol. The molecule also displayed a ΔH at Gdx-Clo [2] of -7.2 ± 0.6 kcal/mol. For the same molecule, the Binding stoichiometry on Gdx-Clo [2] is reported as ~1 substrate per protein dimer. The “Response of Fluc-Bpe to substrate perfusion” value at Fluc-Bpe is on record as “do not elicit a response”. Besides, on Gdx-pPro, the “Transport currents in substrate screen” value was “negative capacitive currents”.
As to `N=C(N)N` [Gdm^+, guanidinium], the Kd amounted to 4300 ± 1000 µM on Gdx-Clo [1] (setting [3]); 1500 ± 300 µM on Gdx-Clo [1] (setting [4]); 960 ± 120 µM at Gdx-Clo [1] (setting [5]); 660 ± 80 µM on Gdx-Clo [1] (setting [6]); 480 ± 100 µM on Gdx-Clo [1] (setting [7]); 600 µM at Gdx-Clo [1] (setting [8]). Also, the Kd at Gdx-Clo [2] is 410 ± 40 µM. The molecule also had a n on Gdx-Clo [2] of 0.56 ± 0.04. The TΔS on Gdx-Clo [2] was -0.3 ± 0.9 kcal/mol. This molecule came in with a ΔG on Gdx-Clo [2] of -4.6 ± 0.1 kcal/mol. The same molecule had a ΔH at Gdx-Clo [2] of -4.9 ± 1.0 kcal/mol. Besides, the Binding stoichiometry at Gdx-Clo [2] is ~1 substrate per protein dimer. Also, the “Response of Fluc-Bpe to substrate perfusion” value on Fluc-Bpe is “do not elicit a response”. At Gdx-pPro, the “Transport currents in substrate screen” value is listed as “negative capacitive currents”. The “Maximal velocity for Gdm+ relative to guanylurea” value on Gdx-pPro (substrate at fivefold Km, normalized to Fluc-Bpe fluoride current) was “approximately twofold higher”.

These data come from PMC10829512, “Transport of metformin metabolites by guanidinium exporters of the small multidrug resistance family” (The Journal of General Physiology, 2024).
